SMILES strings stand for the structures. Where a name gives a salt, the structure may show the parent alone.

For one assay, the system named is sciatic nerve. Description: Local anesthetic effect of nerve block (sciatic nerve block model, hot plate test). It counts as in vivo. The conditions noted are these: rat, single dose 5 mL/Kg through right sciatic nerve, example compounds 6 mg/mL (8.6-10.1 mmol/L), hot plate 50°C; for Duration: levobupivacaine hydrochloride 2 mg/mL, MPE at least 50%. As for the experimental part: Three groups of fully acclimatized rats, one in each group, were given to the example compounds and levobupivacaine hydrochloride positive control, respectively.
Solution preparation: 2 mg/mL levobupivacaine hydrochloride injection: 2.670 mL of 7.5 mg/mL levobupivacaine hydrochloride injection (batch number: 92S0702) was pipetted by a pipette and added into a 10 mL volumetric flask, 0.9% NaCl solution was added until the concave liquid level was flush with the scale line, and the volumetric flask was turned upside down to mix the solution well to prepare 2 mg/ml levobupivacaine hydrochloride injection. 6 mg/mL (the molar concentration calculated from the molecular weight of the example compound ranged from 8.6 to 10.1 mmol/L) example compound solution: 19.80 mg of example compound was accurately weighed and added with 3.3 mL of 0.9% NaCl solution to prepare 6 mg/mL example compound solution.
Each rat was administered or control injected at 5 mL/Kg, in a single dose through right sciatic nerve, and thereafter, the rat was placed on a hot plate of a preheated 50±0.1° C. smart hot plate apparatus. The time required for the occurrence of the behavioral phenomena of avoiding thermal stimuli, such as obvious foot lifting and foot licking on the administered side of the rat was recorded, as the hot incubation period. The allowable maximum value of the hot incubation period was controlled at 60 s. If the rat still has no foot licking after 60 s, the hind foot of the rat was lifted manually to avoid tissue injury or hyperalgesia, and 60 s was taken as the hot incubation period of the rat. After each measurement, the hot plate was wiped in time to remove possible urine and feces, and was dried for subsequent testing.
The results of the hot incubation period were expressed with maximum proportionality effect (MPE) and calculated using the following equation:
[formula] • wherein B represents the basic hot incubation period of rats, P represents the allowable maximum hot incubation period, and C represents the hot incubation period at the detection time point.
It was specified that the tested time below 50% of the maximum proportionality effect was determined to be invalid, and the test was stopped if two consecutive tests were both below 50% of the maximum proportionality effect.
Background: Thermal pain tests record how soon the animal reacts.

Assay [1] relates to rat subcutaneous infiltration models. Description: Subcutaneous infiltration local anesthetic effect (Von Frey stinging stimulus on back skin). It counts as in vivo. Conditions: SD rats. As for the experimental part: SD rats (half male and half female) with a body weight of 190-210 grams were shaved and sterilized on the back, then a circle with a diameter of about 1.5 cm was drawn on one side of the bare back, and 0.5 mL of a drug-containing solution was subcutaneously injected into the skin in the center: normal saline was used as the solvent, 2 mg/mL levobupivacaine hydrochloride, 9 compounds of the present application were selected, at a concentration of 6 mg/mL (the equivalent molar concentration ranged from 8.6 to 10.1 mmol/L according to the corresponding molecular weights of the example compounds), with 10 rats in each group. Von Frey fiber filaments with 100 g strength were bound to a needle for topical skin stimulation. 1 min after drug injection, response of rats to stinging stimulus was tested. The test sites were six different points of the circle of the administration site, and whether behaviors such as skin contraction and avoidance occurred after stimulus was observed and recorded. Three points in the center of the circle and three points on the periphery of the circle were stimulated separately, and the number of occurrences of skin contraction and avoidance behavior was recorded as N/6. In terms of judgment, if there were 4 or more occurrences of avoidance and skin contraction behaviors, it was considered that the drug was ineffective; if there was a reaction on the periphery (≤3) and no reaction (≥1) in the center, it was considered that the drug was still effective; and if there was a reaction only at the points in the center, it was considered that the drug was ineffective. Each compound was tested with 10 rats.
Since the local anesthesia time longer than 72 hours may cause irreversible nerve injury, we subsequently halved (3 mg/mL) the dose of the compounds with the duration of action greater than 72 hours and then conducted an activity test to determine whether the local anesthesia effect could be restored in the skin infiltration models.

Where [2] appears, read: 0.5 mL subcutaneous on back, compounds 6 mg/mL (8.6-10.1 mmol/L).
[3] abbreviates: 0.5 mL subcutaneous on back, compounds 6 mg/mL (8.6-10.1 mmol/L), levobupivacaine hydrochloride 2 mg/mL.
Setting [4] is: subcutaneous on back, compounds 3 mg/mL (4.4-5.1 mmol/L).

As to `CCCC[N+]1(CCCCCN2CCCCC2C(=O)Nc2c(C)cccc2C)CCCCC1C(=O)Nc1c(C)cccc1C` (stereo not drawn) [Compound 1], the Duration with sciatic nerve came out at 24 h; in assay [1] (setting [3]), 55 h. In addition, the Onset time (with sciatic nerve; in assay [1] (setting [2])) was 1 min throughout.
In the assay on sciatic nerve, `CCCC[N+]1(CCCCCN2CCCCC2C(=O)Nc2ccccc2)CCCCC1C(=O)Nc1c(C)cccc1C` (stereo not drawn) [Compound 2] showed a Duration of 15 h and an Onset time of 1 min.
For `CCCC[N+]1(CCCCCN2CCCCC2C(=O)Nc2ccc(F)cc2)CCCCC1C(=O)Nc1c(C)cccc1C` (stereo not drawn) [Compound 3], in that order: 18 h and 1 min.
On to `CCCC[N+]1(CCCCCN2CCCCC2C(=O)Nc2ccc(C)cc2)CCCCC1C(=O)Nc1c(C)cccc1C` (stereo not drawn) [Compound 4], for which the Duration is 48 h with sciatic nerve, 72 to 96 h in assay [1] (setting [3]) and 56 h in assay [1] (setting [4]). The Onset time (in the assay on sciatic nerve; in assay [1] (setting [2]); in assay [1] (setting [4])) was 1 min each time.
In the assay on sciatic nerve, `CCCC[N+]1(CCCCCN2CCCCC2C(=O)NC2CCCCC2)CCCCC1C(=O)Nc1c(C)cccc1C` (stereo not drawn) [Compound 6] yielded a Duration of 12 h and an Onset time of 1 min.
On to `CCCC[N+]1(CCCCN2CCCCC2C(=O)Nc2ccc(F)cc2)CCCCC1C(=O)Nc1c(C)cccc1C` (stereo not drawn) [Compound 7], for which the Duration was determined as 30 h in the assay on sciatic nerve and 52 h in assay [1] (setting [3]). Moreover, the Onset time in the assay on sciatic nerve came out at 1 min; in assay [1] (setting [2]), 2 min.
Consider `CCCC[N+]1(CCCCN2CCCCC2C(=O)Nc2ccccc2)CCCCC1C(=O)Nc1c(C)cccc1C` (stereo not drawn) [Compound 8], for which the values for the Duration (in the assay on sciatic nerve; in assay [1] (setting [3]); in assay [1] (setting [4])) were 48 h, 72 to 96 h and 52 h, respectively. The Onset time (in the assay on sciatic nerve; in assay [1] (setting [2]); in assay [1] (setting [4])) was 1 min throughout.
In the assay on sciatic nerve, `CCCC[N+]1(CCCCN2CCCCC2C(=O)NC2CCCCC2)CCCCC1C(=O)Nc1c(C)cccc1C` (stereo not drawn) [Compound 9] displayed a Duration of 24 h and an Onset time of 1 min.
In the assay with sciatic nerve, `CCC[N+]1(CCCCCN2CCCCC2C(=O)NC2CCCCC2)CCCCC1C(=O)Nc1c(C)cccc1C` (stereo not drawn) [Compound 11] returned a Duration of 11 h and an Onset time of 1 min.
On to `CCC[N+]1(CCCCCN2CCCCC2C(=O)Nc2ccc(C)cc2)CCCCC1C(=O)Nc1c(C)cccc1C` (stereo not drawn) [Compound 12], for which the Duration is 48 h in the assay with sciatic nerve, 72 to 96 h in assay [1] (setting [3]) and 60 h in assay [1] (setting [4]). In addition, the Onset time (with sciatic nerve; in assay [1] (setting [2]); in assay [1] (setting [4])) was 1 min throughout.
As to `CCCC[N+]1(CCCCN2CCCCC2C(=O)Nc2c(C)cccc2C)CCC[C@@H]1C(=O)Nc1c(C)cccc1C` (stereo partly drawn) [Compound 17], in the assay on sciatic nerve, the Duration lay within 12 to 24 h and the Onset time came out at 1 min.
For `CCCC[N+]1(CCCCN2CCCCC2C(=O)Nc2ccc(C)cc2)CCC[C@@H]1C(=O)Nc1c(C)cccc1C` (stereo partly drawn) [Compound 18] the same measures were 20 h and 1 min.
For `CCCC[N+]1(CCCCN2CCCCC2C(=O)Nc2ccc(C(F)(F)F)cc2)CCC[C@@H]1C(=O)Nc1c(C)cccc1C` (stereo partly drawn) [Compound 20] the same measures were 12 to 24 h and 1 min.
For the compound `CCCC[N+]1(CCCCN2CCCCC2C(=O)Nc2ccc(F)cc2)CCC[C@@H]1C(=O)Nc1c(C)cccc1C` (stereo partly drawn) [Compound 21], the Duration was 24 to 48 h with sciatic nerve and 57 h in assay [1] (setting [3]). Besides, the Onset time (in the assay with sciatic nerve; in assay [1] (setting [2])) was 1 min throughout.
Turning to `CCCC[N+]1(CCCCCN2CCCCC2C(=O)Nc2c(C)cccc2C)CCC[C@@H]1C(=O)Nc1c(C)cccc1C` (stereo partly drawn) [Compound 22], the Duration in the assay on sciatic nerve is 24 to 48 h; in assay [1] (setting [3]) it was 60 h. Also, the Onset time (in the assay with sciatic nerve; in assay [1] (setting [2])) was 1 min throughout.
In the assay on sciatic nerve, `CCCC[N+]1(CCCCN2CCCCC2C(=O)Nc2c(C)cccc2C)CCC[C@@H]1C(=O)Nc1c(C)cc(C)cc1C` (stereo partly drawn) [Compound 27] gave a Duration of 12 to 24 h and an Onset time of 1 min.
For `CCCC[N+]1(CCCCN2CCCCC2C(=O)Nc2ccc(C)cc2)CCC[C@@H]1C(=O)Nc1c(C)cc(C)cc1C` (stereo partly drawn) [Compound 28] the same measures were 12 to 24 h and 1 min.
With `CCCC[N+]1(CCCCN2CCCCC2C(=O)Nc2ccc(F)cc2)CCC[C@@H]1C(=O)Nc1c(C)cc(C)cc1C` (stereo partly drawn) [Compound 29], the Duration in the assay on sciatic nerve was 24 to 48 h; in assay [1] (setting [3]), 50 h. Moreover, the Onset time (with sciatic nerve; in assay [1] (setting [2])) was 1 min throughout.
In the assay on sciatic nerve, `CCCC[N+]1(CCCCCN2CCCCC2C(=O)Nc2ccc(F)cc2)CCC[C@@H]1C(=O)Nc1c(C)cc(C)cc1C` (stereo partly drawn) [Compound 32] showed a Duration of 12 to 24 h and an Onset time of 1 min.
On to `CCCCN1CCCC[C@H]1C(=O)Nc1c(C)cccc1C` [Levobupivacaine hydrochloride, reference compound], for which the Duration in the assay with sciatic nerve turned out to be 3 h; in assay [1] (setting [3]) it was 4 h; in assay [1] (setting [4]), 3 h.

The record behind these values is patent publication US20240287021A1, “QUATERNARY AMMONIUM SALT COMPOUND, PREPARATION METHOD THEREFOR AND USE THEREOF” (YICHANG HUMANWELL PHARMACEUTICAL CO., LTD., priority 2021, published 2024).
